Tests used:
[1] = test system: histone deacetylase; test: Histone deacetylase activity in HT-29 cells (fluorometric kit); assay type: cell-based; settings: 10% cell free supernatant, 48 hours
Protocol: Cell free supernatants of stationary phase bacterial cultures were isolated by centrifugation and filtering in a 0.22 uM filter. HT-29 cells were used 3 days' post confluence and stepped down in 1 mL DTS 24 hours prior to commencement of the experiment. The HT-29 cells were challenged with 10% cell free supernatant diluted in DTS and this was left to incubate for 48 hours. […] extraction kit and samples were snap frozen prior to HDAC activity measurement. HDAC activity kit was assessed fluorometrically using the Sigma Aldrich (UK) kit.

[2] = test system: co-culture of human glioblastoma astrocytoma cells and neuroblastoma cells; test: α-synuclein-induced IL-6 secretion in co-culture; assay type: cell-based; settings: 25 μg/ml α-synuclein (Wt, A53T, E46K), 10% bacteria supernatant, 48 hrs
Protocol: SHSY5Y cells were plated on 12 well plates at a density of 50,000 cells/well. The cells were grown in 50% MEM and 50% Nutrient Mixture F-12 Ham media supplemented with 2 mM L-Glutamine, 10% heat inactivated FBS, 100 U/ml penicillin, 100 μg/ml streptomycin. Cells on growth medium were plated on 96-well plate at 11,000 cells/well and placed in the incubator. After 2 days, media were replaced with differentiation medium (growth medium containing 1% FBS) and 10 μM retinoic acid. Differentiation medium was replaced every other day and cells were used after 7 days of differentiation. U373 were plated on 12 transwell plates (0.4 μm polyester membrane, Costar) at a density of 50,000 cells/well for 72 hrs. Cells were co-cultured together for 24 hrs before treatment in differentiation medium (growth medium containing 1% FBS without retinoic acid).
Thereafter cells were treated with 25 μg/ml α-synuclein (Wt, A53T, E46K) in the presence or absence of 10% bacteria supernatant for 48 hrs. Cell free Supernatants were collected, spun-down at 10000 g for 3 min at 4° C., aliquoted and stored at −80° C. Human IL-6 and IL-8 were measured as described above.

[3] = test system: MPTP lesioned mice; test: Dopamine, DOPAC and HVA in striatum of MPTP lesioned mice (HPLC); assay type: in vivo, mouse; settings: 2 x 10^8 bacteria p.o. 18 days, MPTP 4 × 20 mg/kg i.p. day 0, day 4 sampling
Protocol: The aim of this study was to evaluate the effects of MRX0029 anaerobic bacteria using MPTP lesioned mice. 48 male mice were allocated to 4 different treatment groups (groups A, B, E and I, with n=12 animals in each group). The treatment groups are shown in Table 1 below and the project time course is outlined below.
Groups A, B, E and I were treated daily for 18 days via oral gavage with either bacteria (MRx0029-group E), or vehicle (PBS). Oral treatment started 14 days before MPTP lesion. Group I animals received a daily vehicle (PBS) p.o. (per oral) treatment and were injected i.p. (intraperitoneal) with the reference drug 30 min before and 90 min after first MPTP on day 0. The application volume for p.o. and vehicle treatment was 200 μl per mouse. Bacteria strain of group E was from glycerol stocks (gly). For oral treatment, gavages for applications were stored in vial containing 70% Ethanol and were flushed before and after each use with distilled water. Every treatment group had its own gavage and ethanol vial and distilled water vial. The tubes and gavages were not changed between the groups. […]
Concentrations of DA, DOPAC and HVA in the striatal samples were determined by column liquid chromatography with electrochemical detection [110; 111]. […] The chromatograms were recorded and integrated by use of a computerized data acquisition system (DataApex, Prague, Czech Republic). […]

[4] = test system: class II HDACs; test: Specific HDAC activity analysis (fluorogenic assay kit, BPS Bioscience); assay type: biochemical; settings: data not shown
Protocol: Specific HDAC inhibition activity was analysed for HDAC1, 2, 3, 4, 5, 6, 9 using fluorogenic assay kits for each type of HDAC (BPS Bioscience, CA). Assays were conducted according to manufacturer's instructions and each sample were performed in replicates. Cell free supernatants were diluted 1 in 10 and exposed to specific HDAC proteins provided in the kit to maintain consistency between methods.
The specific HDAC inhibition profile of the test bacteria strain was investigated. Specific HDAC inhibition assays (BPS Bioscience, CA) were carried out for Class I and Class II HDACs. The ability of the bacterial strain to inhibit HDAC enzymes was compared to butyrate, hexanoic and valeric acid (FIGS. 14 and 15).

Megasphaera massiliensis [MRx0029]
levels of histone deacetylase activity [1]: reduce | α-syn-induced secretion of IL-6 [2]: greatest | DOPAC in striatum [3]: recover production | Dopamine in striatum [3]: recover production | Inhibition of class II HDACs [4]: not as significant

From patent publication US11660319B2, “Compositions comprising bacterial strains” (priority 2017, dated 2023)
